Where a SMILES comes first, the peptide text is derived from it. [ ]: non-standard residue; d: D form. The star is where a group is joined. Orn = NCCC[C@H](N)C(=O)O; Nva = CCC[C@H](N)C(=O)O; Ahx = NCCCCCC(=O)O; X1 = CC(C)CCO*
Assays:
[1] = In vitro affinity for the neurotensin receptor on mouse brain membranes.; assay type: tissue-based
[2] = system: Mus musculus; experiment: Antinociceptive activity using the mouse phenylquinone writhing assay with i.c.v. administration; assay type: functional

Compound	Ki [1]	ED50 [2]
CC[C@@H](C)[C@H](NC(=O)[C@H](Cc1ccc(O)cc1)NC(=O)[C@@H]1CCCN1C(=O)[C@H](CCCNC(=N)N)NC(=O)[C@@H](N)CCCNC(=N)N)C(=O)N[C@@H](CC(C)C)C(=O)O	4 nM	–
CC[C@H](C)[C@H](NC(=O)[C@H](Cc1ccc(O)cc1)NC(=O)[C@@H]1CCCN1C(=O)[C@H](CCCNC(=N)N)NC(=O)[C@@H](N)CCCNC(=N)N)C(=O)N[C@@H](CC(C)C)C(=O)O	–	0.092 ug mouse-1
CC[C@H](C)[C@H](NC(=O)[C@H](Cc1ccc(O)cc1)NC(=O)[C@@H]1CCCN1C(=O)[C@@H](N)CCCN=C(N)N)C(=O)N[C@@H](CC(C)C)C(=O)O	73 nM	0.0201 ug mouse-1
CC[C@@H](C)[C@H](NC(=O)[C@H](Cc1ccc(O)cc1)NC(=O)[C@@H]1CCCN1)C(=O)O	> 1000 nM	>50 ug mouse-1
CC[C@H](C)[C@H](NC(=O)[C@@H](N)Cc1ccc(O)cc1)C(=O)N[C@@H](CC(C)C)C(=O)O	> 10000 nM	>50 ug mouse-1
NC(N)=NCCC[C@H](NC(=O)[C@@H](N)CCCN=C(N)N)C(=O)O (H-Arg-Arg-OH)	> 100000 nM	>50 ug mouse-1
NC(N)=NCCC[C@H](NC(=O)[C@@H](N)CCCN=C(N)N)C(=O)N1CCC[C@H]1C(=O)O (H-Arg-Arg-Pro-OH)	–	>=500 ug mouse-1
NC(N)=NCCC[C@H](N)C(=O)N1CCC[C@H]1C(=O)O (H-Arg-Pro-OH)	> 10000 nM	>50 ug mouse-1
NC(N)=NCCC[C@H](N)C(=O)N1CCC[C@H]1C(=O)N[C@@H](Cc1ccc(O)cc1)C(=O)O (H-Arg-Pro-Tyr-OH)	> 10000 nM	55 ug mouse-1
CC[C@H](C)[C@H](N)C(=O)N[C@@H](CC(C)C)C(=O)O (H-Ile-Leu-OH)	> 1000 nM	>50 ug mouse-1
CC[C@H](C)[C@H](NC(=O)[C@H](Cc1ccc(O)cc1)NC(=O)[C@@H]1CCCN1C(=O)[C@@H](N)CCCCN)C(=O)OCCC(C)C (H-KPYI-X1)	> 10000 nM	–
CC[C@H](C)[C@H](NC(=O)[C@H](Cc1ccc(O)cc1)NC(=O)[C@@H]1CCCN1)C(=O)N[C@@H](CC(C)C)C(=O)O (H-PYIL-OH)	> 1000 nM	>50 ug mouse-1
O=C(O)[C@H](Cc1ccc(O)cc1)NC(=O)[C@@H]1CCCN1 (H-Pro-Tyr-OH)	13000 nM	>50 ug mouse-1
CC[C@H](C)[C@H](NC(=O)[C@H](Cc1ccc(O)cc1)NC(=O)[C@@H]1CCCN1C(=O)[C@@H](N)CCCN=C(N)N)C(=O)O (H-RPYI-OH)	> 1000 nM	>=50 ug mouse-1
CC[C@H](C)[C@H](NC(=O)[C@@H](N)Cc1ccc(O)cc1)C(=O)O (H-Tyr-Ile-OH)	> 1000 nM	>50 ug mouse-1
CC[C@H](C)[C@H](NC(=O)[C@H](Cc1ccc(O)cc1)NC(=O)[C@@H]1CCCN1C(=O)CCCCCN)C(=O)N[C@@H](CC(C)C)C(=O)O (H-[Ahx]PYIL-OH)	1300 nM	1.3 ug mouse-1
CCC[C@H](N)C(=O)N1CCC[C@H]1C(=O)N[C@@H](Cc1ccc(O)cc1)C(=O)N[C@H](C(=O)N[C@@H](CC(C)C)C(=O)O)[C@@H](C)CC (H-[Nva]PYIL-OH)	3000 nM	>50 ug mouse-1
CC[C@H](C)[C@H](NC(=O)[C@H](Cc1ccc(O)cc1)NC(=O)[C@@H]1CCCN1C(=O)[C@@H](N)CCCN)C(=O)N[C@@H](CC(C)C)C(=O)O (H-[Orn]PYIL-OH)	520 nM	20 ug mouse-1
H-APYIL-OH	5900 nM	<50 ug mouse-1
H-KAYIL-OH	> 10000 nM	>50 ug mouse-1
H-KPAIL-OH	> 10000 nM	>50 ug mouse-1
H-KPYAL-OH	4200 nM	>50 ug mouse-1
H-KPYIA-OH	> 10000 nM	>50 ug mouse-1
H-KPYIL-OH	690 nM	8 ug mouse-1

From ChEMBL document CHEMBL1150463, “Identification of simpler analogs of neurotensin(913) which retain antinociceptive activity” (Bioorg Med Chem Lett, 1993)
